Earlier results as cited in patent publication US20260027218A1, “STAR-SHAPED GRAFT COPOLYMERS” (POLYPEPTIDE THERAPEUTIC SOLUTIONS, S.L., priority 2022, published 2026).

CCN(CC)c1ccc2nc3c4ccccc4c(=O)cc-3oc2c1 [Nile Red]
log P: 2.98
